Data published in patent US20060270862A1, “Analogs of discodermolide and dictyostatin-1, intermediates therefor and methods of synthesis thereof” (priority 2002, published 2006).
Like-named read-outs stand apart in the source and are kept apart here.

Tests used:
[1] = system: paclitaxel binding site on tubulin; experiment: Paclitaxel binding site inhibition assay ([3H]paclitaxel displacement from microtubules); parameters: species or system bovine; details: for Displacement of [3H]paclitaxel (%): 4 μM test agent, 2 μM [3H]paclitaxel, microtubules from 2 μM tubulin and 20 μM dideoxyGTP
Procedure: (§1) General. Tubulin without microtubule-associated proteins was prepared from fresh bovine brains[32] The normoisotopic and tritiated forms of paclitaxel and normoisotopic docetaxel were provided by the Drug Synthesis and Chemistry Branch, National Cancer Institute. (+)-Discodermolide was from Novartis Pharmaceutical Corporation. Ca^2+- and Mg^2+-free RPMI-1640 culture medium were from GIBCO/BRL-Life Technologies. Fetal bovine serum (FBS) was from Hyclone. Cell lines were obtained from American Type Culture Collection (Manassas, Va.).
Paclitaxel binding site inhibition assay. A stock solution of [^3H]paclitaxel (26.8 μM, 16.2 Ci/mmol), obtained from the NCI, was prepared in 37% (v/v) DMSO. The test agents were prepared in 25% (v/v) DMSO-0.75 M monosodium glutamate (prepared from a 2M stock solution adjusted to pH 6.6 with HCl). The radiolabeled paclitaxel and test agents, as indicated in terms of final concentrations, were mixed in equal volumes and warmed to 37° C. A reaction mixture (50 μL) containing 0.75 M monosodium glutamate, 4.0 μM tubulin, and 40 μM ddGTP (a non-hydrolyzable analog of GTP) was prepared and incubated at 37° C. for 30 min to preform microtubules. An equivalent volume of drug mixture with [^3H]paclitaxel was added to preformed polymer and incubated for 30 min at 37° C. Bound [^3H]paclitaxel was separated from free drug by centrifugation of the reaction mixtures at 14000 rpm for 20 min at room temperature. Non-specific binding was determined by addition of a 12-fold excess of docetaxel. Radioactive counts from the supernatant (50 μL) were determined by scintillation spectrometry. Bound [^3H]paclitaxel was calculated from the following: total paclitaxel added to each reaction mixture minus the paclitaxel present in the supernatant (free drug). The % bound values were normalized to the control values with no inhibitor added.

MDA-MB231 (breast) = experiment: Cell growth inhibition (MTS), MDA-MB231; assay type: cell-based, human
Procedure: (§2) Cell Growth Inhibition[34] Cells were plated (500-2000 cells/well depending on the cell line) in 96-well microplates, allowed to attach and grow for 48 h, then treated with vehicle (4% DMSO, a concentration that allowed doubling times of 24 h or less) or test agent (50, 10, 2, 0.4 and 0.08 μM for the new agents; 0.001, 0.005, 0.010, 0.020 and 0.100 μM for paclitaxel and discodermolide) for the given times. One plate consisted of cells from each line used for a time zero cell number determination. The other plates in a given determination contained eight wells of control cells, eight wells of medium and each agent concentration tested in quadruplicate. Cell numbers were obtained spectrophotometrically (absorbance at 490 nm minus that at 630 nm) in a Dynamax plate reader after treatment with 3-(4,5-dimethylthiazol-2-yl)-5-(3-carboxymethoxyphenyl)-2-(4-sulfophenyl)-2H-tetrazolium (MTS) using phenazine methanesulfonate as the electron acceptor. After initial screening with the above 5-fold dilutions, fifty percent growth inhibitory concentration (GI50) values were determined for each agent by repeating the screen using 2-fold dilutions (five concentrations) centered on the initial estimated GI50 concentration, again in quadruplicate.

2008 (ovarian) = experiment: Cell growth inhibition (MTS), 2008; assay type: cell-based, human
Procedure: as §2

PC3 (prostate) = experiment: Cell growth inhibition (MTS), PC3; assay type: cell-based; details: Homo sapiens, 72 h, read-out: GI50 PC3 (prostate)
Procedure: as §2

tubulin = assay type: biochemical, bovine; details: for MT stabilizing activity (%): tubulin assembly induced by test agent at 10 μM vs. 10 μM paclitaxel (100%), single determinations at 30° C.; for properties of the induced polymer: speed of induction, resistance to cold-induced disassembly (in words): FIGS. 6A, 6C, 6D, analogs at somewhat lower potencies than discodermolide; for microtubule hypernucleation activity (in words): comparison with analog 40, FIGS. 6A-D and Table 1
Procedure: as §1
Tubulin Polymerization[32] Tubulin assembly was followed in a Beckman-Coulter 7400 spectrophotometer, equipped with an electronic Peltier temperature controller, reading absorbance (turbidity) at 350 nm. Reaction mixtures (0.25 mL final volume) contained tubulin (final concentration 10 μM; 1 mg/mL), monosodium glutamate (0.8 M from a stock solution adjusted to pH 6.6 with HCl), DMSO (final volume 4% v/v), and differing concentrations of test agent where indicated. Reaction mixtures without test agent were cooled to 0° C. and added to cuvettes held at 0.25-0.5° C. in the spectrophotometer. Test agent in DMSO was then rapidly mixed in the reaction mixture. Each run contained one positive control (paclitaxel, 10 μM final concentration) and one negative control (DMSO only). Baselines were established at 0.25-2.5° C. and temperature was rapidly raised to 30° C. (in approximately 1 min) and held there for 20 min.

[2] = ester bond, 2,4,6-trichlorobenzoyl chloride / Et3N / DMAP, toluene, 25.0 °C, 16.0 h
[3] = Homo sapiens, MDA-MB-231, 48 h, read-out: GI50 MDA-MB-231 (breast)
[4] = Homo sapiens, MDA-MB-231, read-out: 50% growth inhibitory concentration
[5] = Homo sapiens, 48 h, read-out: GI50 2008 (ovary)
[6] = Table 2, applies to both human cancer cell lines, breast (MDA-MB-231) and ovarian (2008), read-out: 50% growth inhibitory concentration

In the case of `C=CC=C[C@H](C)[C@@H](O)[C@H](C)[C@H](O)CCC=C[C@H](C)[C@@H](O)[C@@H](C)C=CCCCCCCCCCO` [Compound 47, (12S,13S,14S,19R,20R,21R,22S)-12,14,20,22-Tetramethylhexacosa-10,15,23,25-tetraene-1,13,19,21-tetraol], the “Displacement of [3H]paclitaxel (%)” value ([1]; N = 6, means ± SD) is reported as 21 ± 2%, the GI50 (MDA-MB231 (breast); [3]) is reported as 18 ± 1 µM and the IC50 (MDA-MB231 (breast); [4]) is reported as 15 to 30 µM. The GI50 (2008 (ovarian); [5]) was 22 ± 5 µM.

For `C=C/C=C\[C@H](C)[C@H](OC(N)=O)[C@@H](C)[C@H](O)CC/C=C\[C@H](C)[C@H](O)[C@@H](C)/C=C\CC[C@@H]1OC(=O)[C@H](C)[C@@H](O)[C@@H]1C` [Compound 40, Carbamic acid, (1S,2S,3R,6Z,8S,9S,10S,11Z)-3,9-dihydroxy-14-[(2S,3S,4S,5R)-4-hydroxy-3,5-dimethyl-6-oxotetrahydropyran-2-yl]-2,8,10-trimethyl-1-[(1S,2Z)-1-methylpenta-2,4-dienyl]tetradeca-6,11-dienyl ester], the GI50 (PC3 (prostate)) was 7.5 ± 2 µM, the “Displacement of [3H]paclitaxel (%)” value [1] was 21 ± 1% and the “MT stabilizing activity (%)” value (tubulin) was 11%. For the same compound, the GI50 (MDA-MB231 (breast); Homo sapiens, MDA-MB-231, 72 h, read-out: GI50 MDA-MB231 (breast)) was 2.1 ± 1.8 µM and the GI50 (2008 (ovarian); Homo sapiens, 72 h, read-out: GI50 2008 (ovarian)) was 5.2 ± 1 µM.

Work on `C=C/C=C\[C@H](C)[C@H]1OC(=O)CCCCCCCC/C=C\[C@H](C)[C@H](OCc2ccc(OC)cc2)[C@@H](C)/C=C\CC[C@@H](OCc2ccc(OC)cc2)[C@H]1C` yielded a ring closure, yield of all isomers ([2]; from C=C/C=C\[C@H](C)[C@@H](O)[C@H](C)[C@@H](CC/C=C\[C@H](C)[C@@H](OCc1ccc(OC)cc1)[C@@H](C)/C=C\CCCCCCCCC(=O)O)OCc1ccc(OC)cc1, 1.93 mM) of 57%.

For `C=CC=C[C@H](C)[C@H]1OC(=O)CCCCCCCCC=C[C@H](C)[C@H](O)[C@@H](C)C=CCC[C@@H](O)[C@H]1C` [Compound 43, (1S,13S,14S,15S,20R,21R,22R)-14,20-Dihydroxy-13,15,21-trimethyl-22-(1-methylpenta-2,4-dienyl)-oxacyclodocosa-11,16-dien-2-one], the “Displacement of [3H]paclitaxel (%)” value ([1]; N = 6, means ± SD) was 18 ± 5%, the GI50 (MDA-MB231 (breast); [3]) was 27 ± 1 µM and the IC50 (MDA-MB231 (breast); [4]) was 15 to 30 µM. For the same compound, the GI50 (2008 (ovarian); [5]) was 16 ± 1 µM.

For `C=C/C=C\[C@H](C)[C@H](OC(N)=O)[C@@H](C)[C@H](O)CC/C=C\[C@H](C)[C@H](O)[C@@H](C)/C=C\CC[C@@H]1OC(=O)[C@H](C)[C@@H](OCOC)[C@H]1C` [Compound 41], the “affinity for the paclitaxel binding site on tubulin (in words)” value [1] was “considerable affinity”, the “Displacement of [3H]paclitaxel (%)” value [1] was 57 ± 2% and the “displacement of [3H]paclitaxel from microtubules, comparison (in words)” value ([1]; 2-fold molar excess of test agent) was “better than paclitaxel and at almost the same potency as discodermolide”. For the same compound, the “properties of the induced polymer: speed of induction, resistance to cold-induced disassembly (in words)” value (tubulin) was “more rapid polymer-inducing and cold-resistant properties”, the “microtubule hypernucleation activity (in words)” value (tubulin) was “better microtubule hypernucleation activities than the analog 40” and the “MT stabilizing activity (%)” value (tubulin) was 27%. The “50% growth inhibitory (GI50) concentration (in words)” value (MDA-MB231 (breast); cellular activity, cell line not given) was “submicromolar”.

For `C=CC=C[C@H](C)[C@@H](O)[C@H](C)[C@H](O)CCC=C[C@H](C)[C@@H](O)[C@@H](C)C=CCCCCCCCCC(=O)O` [Compound 49, (12S,13S,14S,19R,20R,21R,22S)-13,19,21-Trihydroxy-12,14,20,22-tetramethylhexacosa-10,15,23,25-tetraenoic acid], the “Displacement of [3H]paclitaxel (%)” value ([1]; N = 6, means ± SD) was 16 ± 3%, the GI50 (MDA-MB231 (breast); Homo sapiens, MDA-MB-231, 48 hours continuous exposure, mean ± SD, N = 4, read-out: GI50 MDA-MB-231 (breast)) was greater than 50 µM and the IC50 (MDA-MB231 (breast); [6]) was greater than 50 µM. The GI50 (2008 (ovarian); Homo sapiens, 48 hours continuous exposure, mean ± SD, N = 4, read-out: GI50 2008 (ovary)) was greater than 50 µM.

For `C=C/C=C\[C@H](C)[C@@H]1OC(=O)/C=C\C=C\[C@@H](C)[C@@H](O[Si](C)(C)C(C)(C)C)C[C@H](O[Si](C)(C)C(C)(C)C)/C=C\[C@H](C)[C@H](O)[C@@H](C)C[C@@H](C)CCC(O[Si](C)(C)C(C)(C)C)[C@@H]1C` (stereo partly shown), the ring closure, yield of all isomers ([2]; from C=C/C=C\[C@H](C)[C@H](O)[C@@H](C)C(CC[C@H](C)C[C@H](C)[C@@H](O)[C@@H](C)/C=C\[C@H](C[C@H](O[Si](C)(C)C(C)(C)C)[C@H](C)/C=C/C=C\C(=O)O)O[Si](C)(C)C(C)(C)C)O[Si](C)(C)C(C)(C)C, 1.77 mM, 2 steps) was 49%.

With `C=CC=C[C@H](C)[C@@H](O)[C@H](C)[C@H](O)CCC=C[C@H](C)[C@@H](O)[C@@H](C)C=CCCCCCCCCC(=O)OC` [Compound 48, (12S,13S,14S,19R,20R,21R,22S)-13,19,21-Trihydroxy-12,14,20,22-tetramethylhexacosa-10,15,23,25-tetraenoic acid methyl ester] the “Displacement of [3H]paclitaxel (%)” value ([1]; N = 6, means ± SD) was 17 ± 1%, the GI50 (MDA-MB231 (breast); [3]) was 26 ± 3 µM and the IC50 (MDA-MB231 (breast); [4]) was 15 to 30 µM. For the same compound, the GI50 (2008 (ovarian); [5]) was 19 ± 2 µM.

In the case of `C=C/C=C\[C@H](C)[C@H](OC(N)=O)[C@@H](C)[C@H](O)CC/C=C\[C@H](C)[C@H](O)[C@@H](C)/C=C\CC[C@@H]1O[C@@H](OC)[C@H](C)[C@@H](OCOC)[C@H]1C` [Compound 42, Carbamic acid, (1S,2S,3R,6Z,8S,9S,1S,11Z)-3,9-dihydroxy-14-[(2S,3S,4S,5R,6R)-6-methoxy-4-methoxymethoxy-3,5-dimethyltetrahydropyran-2-yl]-2,8,10-trimethyl-1-[(1S,2Z)-1-methylpenta-2,4-dienyl]tetradeca-6,11-dienyl ester], the “Displacement of [3H]paclitaxel (%)” value [1] is reported as 19 ± 2%, the “properties of the induced polymer: speed of induction, resistance to cold-induced disassembly (in words)” value (tubulin) is reported as “more rapid polymer-inducing and cold-resistant properties” and the “microtubule hypernucleation activity (in words)” value (tubulin) is reported as “better microtubule hypernucleation activities than the analog 40”. For the same compound, the “MT stabilizing activity (%)” value (tubulin) was 11%.

In the case of `C=CC=CC(C)[C@H]1OC(=O)C=CC=C[C@@H](C)[C@H](O)CCC=C[C@H](C)[C@H](O)[C@@H](C)C=CCC[C@@H](O)[C@H]1C` (stereo partly drawn) [Compound 54, (7R,8R,13S,14S,15S,20R,21R,22R,23S)-8,14,20-Trihydroxy-7,13,15,21-tetramethyl-22-(1-methylpenta-2,4-dienyl)-oxacyclodocosa-3,5,11,16-tetraen-2-one], the “Displacement of [3H]paclitaxel (%)” value ([1]; N = 6, means ± SD) is reported as 27 ± 8%, the “potency of [3H]paclitaxel displacement relative to discodermolide” value ([1]; [3H]paclitaxel stoichiometrically bound to microtubules) is reported as “about ⅓” and the GI50 (MDA-MB231 (breast); 72 hours continuous exposure (footnote b), mean ± SD, N = 4, read-out: GI50 MDA-MB-231 (breast)) is reported as 1.4 ± 0.1 µM. It also gave an IC50 (MDA-MB231 (breast); [6]) of roughly 1 µM and a GI50 (2008 (ovarian); 72 hours continuous exposure (footnote b), mean ± SD, N = 4, read-out: GI50 2008 (ovary)) of 1 ± 0.1 µM.

In the case of `C=C/C=C\[C@H](C)[C@H]1OC(=O)/C=C\C=C\[C@@H](C)[C@H](OCc2ccc(OC)cc2)CC/C=C\[C@H](C)[C@H](OCc2ccc(OC)cc2)[C@@H](C)/C=C\CC[C@@H](OCc2ccc(OC)cc2)[C@H]1C`, the ring closure, yield of all isomers ([2]; from C=C/C=C\[C@H](C)[C@@H](O)[C@H](C)[C@@H](CC/C=C\[C@H](C)[C@@H](OCc1ccc(OC)cc1)[C@@H](C)/C=C\CC[C@@H](OCc1ccc(OC)cc1)[C@H](C)/C=C/C=C\C(=O)O)OCc1ccc(OC)cc1, 2 steps) is reported as 79%.
